# Assay results published in ChEMBL document CHEMBL1201862, “PubChem BioAssay data set” (2004).
# Calls of active or inactive are those of the source.
# How the values were obtained:
# Protein skinhead-1 = molecular target: T1, Protein skinhead-1 (Caenorhabditis elegans, UniProt P34707); type: functional
# T1 sequence (P34707 whole entry): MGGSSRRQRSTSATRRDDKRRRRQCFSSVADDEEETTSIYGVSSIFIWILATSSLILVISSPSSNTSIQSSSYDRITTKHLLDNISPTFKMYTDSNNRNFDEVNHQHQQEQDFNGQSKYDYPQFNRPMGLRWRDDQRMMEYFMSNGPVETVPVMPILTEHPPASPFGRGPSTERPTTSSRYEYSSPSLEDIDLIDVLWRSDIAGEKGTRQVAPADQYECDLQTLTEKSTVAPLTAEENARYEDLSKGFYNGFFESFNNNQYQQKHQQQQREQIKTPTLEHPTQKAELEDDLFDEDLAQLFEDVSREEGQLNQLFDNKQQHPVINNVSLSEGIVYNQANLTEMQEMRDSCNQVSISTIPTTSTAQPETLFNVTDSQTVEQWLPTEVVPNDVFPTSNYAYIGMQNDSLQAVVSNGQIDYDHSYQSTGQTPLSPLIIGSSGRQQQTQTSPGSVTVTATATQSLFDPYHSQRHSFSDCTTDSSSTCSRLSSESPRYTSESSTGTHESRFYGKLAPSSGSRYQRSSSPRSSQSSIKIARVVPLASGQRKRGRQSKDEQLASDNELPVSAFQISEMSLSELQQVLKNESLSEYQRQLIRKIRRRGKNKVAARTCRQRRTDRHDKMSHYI
# Cytochrome P450 3A4 = Cytochrome P450 3A4 (Homo sapiens, UniProt P08684);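 further: CYP3A4 tested as one member of a cytochrome P450 panel screen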
# Cytochrome P450 2C9 = Cytochrome P450 2C9 (Homo sapiens, UniProt P11712)
# [1] = Luminescence Cell-Based Dose Retest to Confirm Inhibitors of Cancer Stem Cells. [Related pubchem assays (depositor defined):AID2717, AID2721]; type: functional; conditions: Homo sapiens
# [2] = molecular target: T2, Heat shock factor protein 1 (Mus musculus, UniProt P38532); test: inhibition of MG132-induced HSE-luciferase signal, confirmation, cell-based, NIH3T3, luminescence, dose retest (AID 2382); type: functional;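 further: NIH3T3 fibroblasts with HSF1-driven luciferase reporter stressed by proteasome inhibitor MG132; luminescence from HSF1-driven luciferase expression after 8 hours of MG132 stress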
# T2 sequence (P38532 whole entry): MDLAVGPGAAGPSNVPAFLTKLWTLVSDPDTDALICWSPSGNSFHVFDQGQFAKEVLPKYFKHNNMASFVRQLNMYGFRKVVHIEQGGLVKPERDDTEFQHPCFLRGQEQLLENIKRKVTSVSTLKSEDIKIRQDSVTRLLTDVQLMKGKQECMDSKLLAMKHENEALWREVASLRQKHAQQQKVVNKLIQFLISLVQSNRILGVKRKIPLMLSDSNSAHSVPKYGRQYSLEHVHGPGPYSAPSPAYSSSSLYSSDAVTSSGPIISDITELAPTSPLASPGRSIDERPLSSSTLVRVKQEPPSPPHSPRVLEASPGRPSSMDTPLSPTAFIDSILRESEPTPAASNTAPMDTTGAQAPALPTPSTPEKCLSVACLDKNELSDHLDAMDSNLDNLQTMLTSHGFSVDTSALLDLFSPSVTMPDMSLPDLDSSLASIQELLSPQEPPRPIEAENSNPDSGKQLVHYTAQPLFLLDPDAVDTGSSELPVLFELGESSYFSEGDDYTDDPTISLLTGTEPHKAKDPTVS
# INS1 = test: beta cell apoptosis inhibitors, cytokine rescue, dose response, luminescence, retest (AID 449756); type: functional, cell-based; conditions: Rattus norvegicus;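 further: cell death triggered by IL-1 beta plus TNF-alpha plus IFN-gamma mixture; protective hits raise ATP signal compared with cytokine alone wells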
# Cytochrome P450 1A2 = molecular target: T3, Cytochrome P450 1A2 (Homo sapiens, UniProt P05177);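 further: PubChem cytochrome P450 panel assay, CYP1A2 panel member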
# T3 sequence (P05177 whole entry): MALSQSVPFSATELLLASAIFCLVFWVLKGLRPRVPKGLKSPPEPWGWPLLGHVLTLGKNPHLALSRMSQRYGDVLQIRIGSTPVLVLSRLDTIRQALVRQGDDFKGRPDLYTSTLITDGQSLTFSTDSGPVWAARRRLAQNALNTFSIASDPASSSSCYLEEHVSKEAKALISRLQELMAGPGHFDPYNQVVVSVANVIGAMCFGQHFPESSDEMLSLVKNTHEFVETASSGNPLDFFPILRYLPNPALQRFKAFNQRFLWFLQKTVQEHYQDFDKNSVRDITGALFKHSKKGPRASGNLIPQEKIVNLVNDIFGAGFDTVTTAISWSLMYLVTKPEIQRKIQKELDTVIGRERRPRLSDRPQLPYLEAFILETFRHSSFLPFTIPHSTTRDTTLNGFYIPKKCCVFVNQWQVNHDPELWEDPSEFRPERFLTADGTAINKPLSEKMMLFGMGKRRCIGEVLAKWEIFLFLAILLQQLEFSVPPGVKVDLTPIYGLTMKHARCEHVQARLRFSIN
# [3] = molecular target: Luciferin 4-monooxygenase (Photinus pyralis, UniProt P08659); test: firefly luciferase enzyme inhibitors, dose response, biochemical, luminescence (AID 1891)
# [4] = Luminescence Cell-Based Dose Confirmation HTS to Identify Inhibitors of Platelet Dense Granule Release. [Related pubchem assays: 1663 (Primary HTS), 1678 (Summary of Project)]; type: functional
# Streptococcus = test: Group A Streptococcus viability loss, dose response, counter-screen for streptokinase expression inhibitor project, luminescence, BacTiterGlo (AID 1915); type: functional, organism-based;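 further: potency for reduction of bacterial viability or growth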
# [5] = test system: Streptococcus sp. 'group A'; test: growth inhibition of control SK(-) GAS strain, dose response, counter-screen for streptokinase expression inhibitor project, luminescence, kanamycin, BacTiterGlo, confirmation (AID 1900); type: functional, organism-based
# Streptokinase A = molecular target: T4, Streptokinase A (Streptococcus pyogenes serotype M1, UniProt P10520); test: S. pyogenes streptokinase expression inhibitors, potency, dose response, plasminogen activation absorbance, OD405 (AID 1914); type: functional, Streptococcus pyogenes M1 GAS;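 further: secreted streptokinase activity via plasminogen activation per viability signal from cell pellet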
# T4 sequence (P10520 whole entry): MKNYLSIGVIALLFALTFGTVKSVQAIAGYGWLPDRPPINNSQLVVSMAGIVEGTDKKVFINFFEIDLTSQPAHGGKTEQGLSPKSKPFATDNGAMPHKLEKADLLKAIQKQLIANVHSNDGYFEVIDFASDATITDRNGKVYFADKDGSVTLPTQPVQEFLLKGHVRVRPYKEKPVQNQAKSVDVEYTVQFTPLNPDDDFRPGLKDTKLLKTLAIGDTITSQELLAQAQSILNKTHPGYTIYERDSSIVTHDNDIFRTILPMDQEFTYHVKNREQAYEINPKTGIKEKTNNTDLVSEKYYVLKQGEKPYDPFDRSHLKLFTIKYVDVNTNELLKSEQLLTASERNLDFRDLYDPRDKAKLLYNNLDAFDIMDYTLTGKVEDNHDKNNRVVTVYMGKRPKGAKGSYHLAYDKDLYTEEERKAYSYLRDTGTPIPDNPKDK
# Luciferin 4-monooxygenase, sequence (P08659 whole entry): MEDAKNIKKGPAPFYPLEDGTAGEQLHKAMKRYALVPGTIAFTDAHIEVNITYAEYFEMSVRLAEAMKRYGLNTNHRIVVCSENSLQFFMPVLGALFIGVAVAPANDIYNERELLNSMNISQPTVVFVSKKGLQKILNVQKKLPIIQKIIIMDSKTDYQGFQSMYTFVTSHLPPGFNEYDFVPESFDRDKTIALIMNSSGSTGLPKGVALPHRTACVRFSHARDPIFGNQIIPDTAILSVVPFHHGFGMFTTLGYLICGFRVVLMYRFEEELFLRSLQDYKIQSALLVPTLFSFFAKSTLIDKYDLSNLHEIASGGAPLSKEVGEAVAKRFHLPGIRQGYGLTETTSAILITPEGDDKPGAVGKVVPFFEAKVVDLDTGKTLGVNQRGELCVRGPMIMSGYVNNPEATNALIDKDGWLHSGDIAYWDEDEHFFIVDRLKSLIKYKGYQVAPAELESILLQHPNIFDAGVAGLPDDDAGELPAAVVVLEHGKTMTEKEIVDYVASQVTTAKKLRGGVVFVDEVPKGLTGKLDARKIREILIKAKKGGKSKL
# Cytochrome P450 3A4, sequence (P08684 whole entry): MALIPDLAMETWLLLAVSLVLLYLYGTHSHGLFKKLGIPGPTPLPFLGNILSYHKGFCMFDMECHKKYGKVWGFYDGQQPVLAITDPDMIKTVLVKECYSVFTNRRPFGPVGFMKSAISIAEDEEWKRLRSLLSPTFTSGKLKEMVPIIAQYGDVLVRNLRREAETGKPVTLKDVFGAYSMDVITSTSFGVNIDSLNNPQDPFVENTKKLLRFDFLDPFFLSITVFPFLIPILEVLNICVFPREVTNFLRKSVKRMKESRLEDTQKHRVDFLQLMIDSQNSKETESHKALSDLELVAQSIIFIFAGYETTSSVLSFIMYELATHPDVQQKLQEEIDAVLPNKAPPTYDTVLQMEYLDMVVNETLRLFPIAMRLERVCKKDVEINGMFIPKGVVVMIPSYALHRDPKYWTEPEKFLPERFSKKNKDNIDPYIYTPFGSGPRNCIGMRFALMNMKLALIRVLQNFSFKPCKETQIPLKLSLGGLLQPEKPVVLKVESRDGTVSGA
# Cytochrome P450 2C9, sequence (P11712 whole entry): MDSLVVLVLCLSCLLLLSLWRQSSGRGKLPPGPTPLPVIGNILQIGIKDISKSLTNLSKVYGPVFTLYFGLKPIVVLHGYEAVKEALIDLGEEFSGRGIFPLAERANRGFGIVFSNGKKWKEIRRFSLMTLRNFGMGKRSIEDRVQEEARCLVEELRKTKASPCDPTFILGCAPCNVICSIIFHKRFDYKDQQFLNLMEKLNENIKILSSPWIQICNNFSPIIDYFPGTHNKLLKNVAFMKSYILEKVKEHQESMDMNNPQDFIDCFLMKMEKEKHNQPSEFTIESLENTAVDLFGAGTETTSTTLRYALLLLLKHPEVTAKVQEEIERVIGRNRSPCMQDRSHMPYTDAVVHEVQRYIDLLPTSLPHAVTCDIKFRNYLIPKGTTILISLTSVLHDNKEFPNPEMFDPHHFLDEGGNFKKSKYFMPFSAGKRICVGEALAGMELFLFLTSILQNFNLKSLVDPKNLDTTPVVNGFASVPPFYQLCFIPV
compound,measurement,setting,value
COc1ccc(C(C)=O)cc1CN1C(=O)C(C)ON=C1c1cccc(C(F)(F)F)c1 (configuration not stated),IC50,Protein skinhead-1,> 100 µM (inactive)
Cc1ccc(C(=O)N/N=C\c2cccn2C)cn1,AC50,Cytochrome P450 3A4,0.316 µM (inconclusive)
same,AC50,Cytochrome P450 2C9,89.1 µM (inconclusive)
O=C(OCC(=O)N1N=C(c2ccc(Cl)cc2)CC1c1ccco1)c1ccccc1O (configuration not stated),IC50,Protein skinhead-1,> 100 µM (inactive)
Cc1cccc(CC(=O)NCCn2c(C)cc3ccccc32)c1,IC50,Protein skinhead-1,> 100 µM (inactive)
CCCc1ccc(-c2cc(NC(=O)CSc3nnc(N)s3)n(-c3ccccc3)n2)cc1,AC50,[1],3.72 µM (active)
O=c1c2ccccc2oc2ccc(-c3ccc4cc[nH]c4c3)cc12,IC50,Protein skinhead-1,> 100 µM (inactive)
CCOCC(=O)Nc1cccc(Br)c1,IC50,Protein skinhead-1,> 100 µM (inactive)
CCCCN=C(S)NNc1c(Cl)cc(Cl)cc1Cl,EC50,[2],> 195 µM (not active)
Cn1ccnc1SCC(=O)N(C1CCCCC1)C1CCCCC1,EC50,[2],> 195 µM (not active)
CCOC(=O)CSc1nc(O)c2c(n1)-c1ccccc1CC2(C)CC (configuration not stated),AC50,INS1,40.1 µM (active)
COc1ccc(C2CC(c3ccccc3)=NN2S(=O)(=O)c2ccc(C)cc2)c(OC)c1 (configuration not stated),IC50,Protein skinhead-1,> 100 µM (inactive)
Cc1cc(C)cc(C(=O)N(C)[C@H](Cc2ccc(-c3ccccc3)cc2)C(=O)N[C@@H](Cc2c[nH]c3ccccc23)C(=O)O)c1,AC50,Cytochrome P450 3A4,25.1 µM (inconclusive)
same,AC50,Cytochrome P450 1A2,39.8 µM (inconclusive)
Cn1c(SCC(=O)N2CCCC2)nnc1-c1cccs1,EC50,[3],> 112 µM (not active)
same,EC50,[4],> 112 µM (not active)
CCn1c(=O)c(C(=O)Nc2ccccc2F)c(O)c2ccccc21,EC50,[2],> 195 µM (not active)
CN(Cc1ccccc1)C(=O)CCn1c(=O)oc2ccccc21,EC50,[2],> 195 µM (not active)
CC(C)CC(C(=O)NCc1ccccn1)N1C(=O)c2ccccc2C1=O (configuration not stated),IC50,Protein skinhead-1,> 100 µM (inactive)
CCOC(=O)c1c(-c2ccc(Cl)cc2)csc1NC(=O)CNCc1ccco1,AC50,[1],2.72 µM (active)
Cc1cccc(N2CCN(C(c3ccccc3)c3nnnn3CC3CCCO3)CC2)c1C (configuration not stated),EC50,[2],> 195 µM (not active)
O=C(COC(=O)[C@H](Cc1ccccc1)N1C(=O)c2ccccc2C1=O)Nc1ccc2c(c1)OCO2,EC50,[2],> 195 µM (not active)
CCN(CC(=O)NCc1ccc(Cl)cc1)C(=O)CSc1ccc(Br)cc1,EC50,[3],43.9 µM (active)
same,EC50,[4],> 112 µM (not active)
Cc1cc(OCCCCN2C(=O)NC(C)(C)C2=O)cc(C)c1Cl,IC50,Protein skinhead-1,> 100 µM (inactive)
Cc1ccc(C)c(NC(=O)c2sc(Cl)nc2-c2ccccc2)c1,IC50,Protein skinhead-1,> 100 µM (inactive)
CC(C)c1nc(-c2ccc([N+](=O)[O-])cc2)cs1,IC50,Protein skinhead-1,13.4 µM (active)
Cc1ccc(NC(=O)N2CCCC2C(=O)NCC2CCCCC2)cc1 (configuration not stated),EC50,[2],> 195 µM (not active)
CC(C)(C)NC(=O)c1cccc(NC(=O)Cc2cccs2)c1,EC50,[2],> 195 µM (not active)
CN(C)C(=O)c1ccc(-c2nccc(Nc3ccc(F)cc3)n2)cc1,AC50,Cytochrome P450 3A4,10 µM (inconclusive)
COc1ccc(-c2csc(CCn3nc(C)cc3C)n2)cc1,EC50,[3],> 112 µM (not active)
same,EC50,[4],> 112 µM (not active)
Cc1cccc(NC(=O)Cn2c(/C=C/c3ccccc3)nc3ccccc32)c1,AC50,INS1,30.6 µM (active)
Cc1cc(C)c(NC(=O)CSc2ccc3nnc(CCNC(=O)c4ccccc4)n3n2)c(C)c1,EC50,[3],> 112 µM (not active)
same,EC50,[4],> 112 µM (not active)
CC(=O)OCCNC(=O)Cn1cnc2c1c(=O)n(C)c(=O)n2C,EC50,[3],> 112 µM (not active)
same,EC50,[4],> 112 µM (not active)
COc1ccc(C(=O)c2ccc3oc(-c4ccc(OC)cc4)c(-c4ccc(O)cc4)c3c2)cc1,AC50,[1],3.31 µM (active)
CN(C)CCNC(=O)c1sc2nc(-c3ccccc3)cc(C(F)(F)F)c2c1N,AC50,[1],2.65 µM (active)
Cc1cc(NC(=O)c2cc3ncc(Br)cn3n2)no1,EC50,[3],> 112 µM (not active)
same,EC50,[4],> 112 µM (not active)
Nc1nc(Cl)nc(N(c2ccccc2)c2ccccc2)n1,EC50,[2],> 195 µM (not active)
O=C(NC(=S)Nc1ccccc1N1CCCCC1)c1ccc(F)cc1Cl,EC50,Streptococcus,> 150 µM (not active)
same,EC50,[5],3.75 µM (active)
same,EC50,Streptokinase A,5.06 µM (active)
same,AC50,[1],1.67 µM (active)
Cn1c(N2CCOCC2)nc(-c2ccccc2)c1-c1ccccc1,EC50,[2],> 195 µM (not active)
COc1cc(N)c(Cl)cc1C(=O)OCCCN1CCCCC1,AC50,Cytochrome P450 3A4,25.1 µM (inconclusive)
O=[N+]([O-])c1ccc(N2CCN(C(S)=Nc3ccc(F)cc3)CC2)cc1,AC50,INS1,33.9 µM (active)
OC(c1ccccn1)c1c[nH]c2ccccc12 (configuration not stated),IC50,Protein skinhead-1,> 100 µM (inactive)
Cn1c(=O)c2ncn(CC(=O)Nc3ccc4c5c(cccc35)CC4)c2n(C)c1=O,IC50,Protein skinhead-1,> 100 µM (inactive)
same,EC50,[2],> 195 µM (not active)
CCOC(=O)c1cc(-c2ccco2)nc2c1c(C)nn2-c1ccccc1,IC50,Protein skinhead-1,> 100 µM (inactive)
NC(=S)N/N=C/c1c(O)c(Br)cc2oc3c(c12)CCCC3,AC50,INS1,0.819 µM (active)
O=C(Nc1ccc(Nc2ccccc2)cc1)Nc1ccccc1Cl,AC50,[1],2.12 µM (active)
CP(=O)(O)C1=CCNCC1,AC50,Cytochrome P450 3A4,39.8 µM (inconclusive)
O=C(c1cccc(S(=O)(=O)N2CCOCC2)c1)N1CCN(c2ccc(F)cc2)CC1,EC50,[3],> 112 µM (not active)
same,EC50,[4],> 112 µM (not active)
CC(=O)N(c1ccc2oc(=O)sc2c1)S(=O)(=O)c1ccc(C(=O)O)cc1,EC50,[2],> 195 µM (not active)
COc1ccccc1NC(=O)C1=C(C)Nc2nnnn2C1c1ccccc1OC (configuration not stated),EC50,[3],> 112 µM (not active)
same,EC50,[4],72.3 µM (active)
Cn1c(=S)oc2ccccc21,EC50,[3],> 112 µM (not active)
same,EC50,[4],> 112 µM (not active)
O=C(/C=C/c1ccc2c(c1)OCO2)NCCSCc1c(Cl)cccc1Cl,AC50,[1],1.42 µM (active)
O=C(CSc1nnc(-c2cccnc2)n1Cc1ccccc1)N1CCOCC1,EC50,[3],> 112 µM (not active)
same,EC50,[4],17.2 µM (active)
CC(=O)Nc1cccc(NC(=O)CSc2nnc(Cc3cccn3C)n2-c2ccc(F)cc2)c1,EC50,[2],> 195 µM (not active)
